# Like-named read-outs stand apart in the source and are kept apart here.
# Legend:
# NgTet1 [1] = biological target: T1, NgTet1 (Naegleria gruberi, UniProt D2W6T1); assay type: biochemical
# T1 construct: His6-tagged full-length Naegleria gruberi NgTet1 (321 a. a.) protein with a thrombin cleavage site; made in house; host or cells: E. coli BL21(DE3)
# T1 sequence (D2W6T1 1-321): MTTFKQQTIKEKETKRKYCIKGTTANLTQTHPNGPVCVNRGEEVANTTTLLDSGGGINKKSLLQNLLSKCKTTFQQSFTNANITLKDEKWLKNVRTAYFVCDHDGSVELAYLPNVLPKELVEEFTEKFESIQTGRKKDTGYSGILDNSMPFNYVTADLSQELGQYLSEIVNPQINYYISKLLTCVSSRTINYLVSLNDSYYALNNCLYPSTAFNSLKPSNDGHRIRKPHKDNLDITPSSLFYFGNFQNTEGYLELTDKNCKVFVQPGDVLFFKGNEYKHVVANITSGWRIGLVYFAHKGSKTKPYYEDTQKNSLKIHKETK
# Protocol: Double-stranded 12 bp DNA oligomers were added at a final concentration of 20 µM. […]
# Double-stranded DNA oligomers were added at a final concentration of 20 µM. […]
# All ^1H NMR spectra were recorded at 25 °C using D2O as a reference for internal deuterium lock on a Bruker Avance III 700 MHz equipped with an inverse TCI cryoprobe in 3 or 5 mm diameter tubes with a total sample volume of 160 or 565 μL, respectively. The water signal was reduced using Perfect Echo excitation sculpting suppression. Chemical shifts are reported in ppm relative to D2O (δH = 4.70 ppm).
# Spectrometer settings were determined using a control sample containing all reaction components excluding enzyme. TET enzyme was added to an identical sample, and the resulting assay mixture was transferred to an NMR tube before deposition into the instrument. […] Spectrum recordings were carried out consecutively without delay. Data were processed using automated routines on MestReNova v14.2.0; signals of interest were integrated with absolute intensity scaling. ^1H NMR time courses reported in figures are representative results from two or three independent replicates.
# NgTet1 [2] = biological target: T1, NgTet1; test: AlphaScreen competition assay with biotinylated 5mC dsDNA; assay type: binding; settings: 100 nM NgTet1, 50 nM 5mC dsDNA
# Protocol: (§1) AlphaScreen™ Histidine (Nickel Chelate) Detection Kit was used to evaluate displacement of […] (^5mC dsDNA)[33],[34]. Competitor DNA oligomers in assay buffer were manually dispensed onto 384-well ProxiPlates (5 μL) in a 2-fold dilution series. His6-tagged NgTet1 or TET2CDΔLCI in assay buffer was added (5 μL), and the mixture was pre-incubated with the competitor DNA at room temperature for 10 min. Cofactors and biotinylated ^5mC dsDNA in assay buffer were added (5 μL), and the mixture was further incubated at room temperature for 10 min. A mixture of AlphaScreen beads (1:62.5 dilution) in assay buffer was added (5 μL), and the full mixture was incubated at room temperature for 1 h. The final mixtures (20 μL) contained 100 nM NgTet1 (50 nM ^5mC dsDNA) or 12.5 nM TET2CDΔLCI (12.5 nM ^5mC dsDNA), 50 μM sodium L-ascorbate, 5 μM (NH4)2Fe(SO4)2, and 5 μM disodium NOG in assay buffer (50 mM HEPES [pH 7.3], 150 mM NaCl, 0.1% v/v BSA, 0.01% v/v Tween® 20). For the assay interference counter screen, His6-tagged TET protein and biotinylated ^5mC dsDNA were replaced with 1.6 nM biotinylated His6 peptide. Chemiluminescence was measured on a PHERAstar FS/FSX (BMG Labtech) equipped with an AlphaScreen 680 570 module. All AlphaScreen bead manipulations were performed under subdued lighting. Inhibition data was normalised to reactions containing no competitor and fitted using “log(inhibitor) vs. response - Variable slope (four parameters)” non-linear regression model on GraphPad Prism 5. […]
# (§2) Fig. S5 TETs bind to DNA in a sequence- and modification-independent manner. A binding assay between a biotinylated 5mC dsDNA oligomer and His6-tagged TET was developed using AlphaScreen Histidine (Nickel Chelate) assay. […] Conditions: a 100 nM NgTet1 (50 nM 5mC dsDNA), b 12.5 nM TET2CDΔLCI (12.5 nM 5mC dsDNA), c 1.6 nM biotinylated His6 peptide. Each assay was supplemented with 50 μM sodium L-ascorbate, 5 μM (NH4)2Fe(SO4)2, and 5 μM disodium NOG. Data shown as the mean of three to four experimental replicates (n = 3–4; mean ± SD); tabulated data reported as the mean of two independent replicates (n = 2).
# TET2CDΔLCI = biological target: T2, TET2CDΔLCI (Homo sapiens, UniProt Q6N021); test: as above; assay type: binding; settings: 12.5 nM TET2CDΔLCI, 12.5 nM 5mC dsDNA
# T2 construct: FLAG-[thrombin cleavage site]-SUMO (N); made in house; host or cells: E. coli
# Protocol: as §1, §2
sequence,measurement,setting,value
"AT DNA: double-stranded self-complementary 5'-ACC ACA TGT GGT-3', CpG replaced by ApT (DNA ACCACATGTGGT; DNA, backbone and methylation of C not given here; self-complementary duplex)",V0 NgTet1,"NgTet1 [1]; 20 µM DNA, 100 μM 2OG, 5 μM NgTet1",0.82 µM/min
same,succinate,"NgTet1 [1]; n = 1, time (min) 5HC DNA 5.9, AT DNA 5.81667, 5mC DNA 5.78333",4.127 µM
same,succinate,"NgTet1 [1]; n = 1, time (min) 5HC DNA 8.98333, AT DNA 8.9, 5mC DNA 8.86667",6.717 µM
same,succinate,"NgTet1 [1]; n = 1, time (min) 5HC DNA 12.0667, AT DNA 11.9833, 5mC DNA 11.95",10.1801 µM
same,succinate,"NgTet1 [1]; n = 1, time (min) 5HC DNA 15.1333, AT DNA 15.0667, 5mC DNA 15.0333",12.0396 µM
same,succinate,"NgTet1 [1]; n = 1, time (min) 5HC DNA 18.2167, AT DNA 18.1333, 5mC DNA 18.1167",14.7705 µM
same,succinate,"NgTet1 [1]; n = 1, time (min) 5HC DNA 21.3667, AT DNA 21.2333, 5mC DNA 21.2",16.3534 µM
same,succinate,"NgTet1 [1]; n = 1, time (min) 5HC DNA 24.45, AT DNA 24.3167, 5mC DNA 24.2833",18.4118 µM
same,succinate,"NgTet1 [1]; n = 1, time (min) 5HC DNA 27.5333, AT DNA 27.3833, 5mC DNA 27.3667",20.2156 µM
same,succinate,"NgTet1 [1]; n = 1, time (min) 5HC DNA 30.6, AT DNA 30.4667, 5mC DNA 30.45",21.7474 µM
same,succinate,"NgTet1 [1]; n = 1, time (min) 5HC DNA 33.6833, AT DNA 33.55, 5mC DNA 33.5333",22.2243 µM
same,succinate,"NgTet1 [1]; n = 1, time (min) 5HC DNA 36.7667, AT DNA 36.6333, 5mC DNA 36.6167",23.7117 µM
same,succinate,"NgTet1 [1]; n = 1, time (min) 5HC DNA 39.85, AT DNA 39.7167, 5mC DNA 39.7",24.5115 µM
same,succinate,"NgTet1 [1]; n = 1, time (min) 5HC DNA 42.9333, AT DNA 42.8, 5mC DNA 42.7833",26.1396 µM
same,succinate,"NgTet1 [1]; n = 1, time (min) 5HC DNA 46.0167, AT DNA 45.8833, 5mC DNA 45.8667",27.6473 µM
same,succinate,"NgTet1 [1]; n = 1, time (min) 5HC DNA 49.0833, AT DNA 48.9667, 5mC DNA 48.95",28.232 µM
same,succinate,"NgTet1 [1]; n = 1, time (min) 5HC DNA 52.1667, AT DNA 52.05, 5mC DNA 52.0333",29.053 µM
same,succinate,"NgTet1 [1]; n = 1, time (min) 5HC DNA 55.25, AT DNA 55.1167, 5mC DNA 55.1167",29.9694 µM
same,succinate,"NgTet1 [1]; n = 1, time (min) 5HC DNA 58.3333, AT DNA 58.2, 5mC DNA 58.2",30.8156 µM
same,succinate,"NgTet1 [1]; n = 1, time (min) 5HC DNA 61.4, AT DNA 61.2833, 5mC DNA 61.2833",32.4581 µM
same,succinate,"NgTet1 [1]; n = 1, time (min) 5HC DNA 64.4833, AT DNA 64.3833, 5mC DNA 64.35",32.8043 µM
same,succinate,"NgTet1 [1]; n = 2, time (min) 5HC DNA 5.81667, AT DNA 5.61667, 5mC DNA 6.08333",3.542 µM
same,succinate,"NgTet1 [1]; n = 2, time (min) 5HC DNA 8.88333, AT DNA 8.7, 5mC DNA 9.16667",5.909 µM
same,succinate,"NgTet1 [1]; n = 2, time (min) 5HC DNA 12.0333, AT DNA 11.7833, 5mC DNA 12.25",8.271 µM
same,succinate,"NgTet1 [1]; n = 2, time (min) 5HC DNA 15.1167, AT DNA 14.8667, 5mC DNA 15.3167",11.2722 µM
same,succinate,"NgTet1 [1]; n = 2, time (min) 5HC DNA 18.1833, AT DNA 17.9333, 5mC DNA 18.4",12.8044 µM
same,succinate,"NgTet1 [1]; n = 2, time (min) 5HC DNA 21.2667, AT DNA 21.0167, 5mC DNA 21.4833",14.5697 µM
same,succinate,"NgTet1 [1]; n = 2, time (min) 5HC DNA 24.35, AT DNA 24.1, 5mC DNA 24.5667",16.6119 µM
same,succinate,"NgTet1 [1]; n = 2, time (min) 5HC DNA 27.4333, AT DNA 27.1833, 5mC DNA 27.65",17.8887 µM
same,succinate,"NgTet1 [1]; n = 2, time (min) 5HC DNA 30.5167, AT DNA 30.2667, 5mC DNA 30.7333",19.2454 µM
same,succinate,"NgTet1 [1]; n = 2, time (min) 5HC DNA 33.6, AT DNA 33.35, 5mC DNA 33.8167",20.9427 µM
same,succinate,"NgTet1 [1]; n = 2, time (min) 5HC DNA 36.6833, AT DNA 36.4333, 5mC DNA 36.9",21.6807 µM
same,succinate,"NgTet1 [1]; n = 2, time (min) 5HC DNA 39.7667, AT DNA 39.5167, 5mC DNA 39.9833",23.2699 µM
same,succinate,"NgTet1 [1]; n = 2, time (min) 5HC DNA 42.8333, AT DNA 42.6, 5mC DNA 43.0667",23.7997 µM
same,succinate,"NgTet1 [1]; n = 2, time (min) 5HC DNA 45.9167, AT DNA 45.6833, 5mC DNA 46.15",25.1342 µM
same,succinate,"NgTet1 [1]; n = 2, time (min) 5HC DNA 49, AT DNA 48.7667, 5mC DNA 49.2333",26.0623 µM
same,succinate,"NgTet1 [1]; n = 2, time (min) 5HC DNA 52.0833, AT DNA 51.85, 5mC DNA 52.3167",26.9664 µM
same,succinate,"NgTet1 [1]; n = 2, time (min) 5HC DNA 55.1667, AT DNA 54.9333, 5mC DNA 55.4",27.9222 µM
same,succinate,"NgTet1 [1]; n = 2, time (min) 5HC DNA 58.25, AT DNA 58.0167, 5mC DNA 58.4833",28.2598 µM
same,succinate,"NgTet1 [1]; n = 2, time (min) 5HC DNA 61.3333, AT DNA 61.1, 5mC DNA 61.5667",29.5623 µM
same,succinate,"NgTet1 [1]; n = 2, time (min) 5HC DNA 64.4167, AT DNA 64.1667, 5mC DNA 64.65",30.2392 µM
same,Relative V0 NgTet1,NgTet1 [1]; relative to reactions without DNA,2.3
same,IC50,NgTet1 [2],56.2 µM
same,competition pIC50 NgTet1,NgTet1 [2]; n = 2,4.25
same,IC50,TET2CDΔLCI,4.57 µM
same,competition pIC50 TET2CDΔLCI,TET2CDΔLCI; n = 2,5.34
